The text below walks through data of patent publication US20260115181A1, “TRANSCRIPTION FACTOR PFAP2-O5 INHIBITOR FOR PLASMODIUM FALCIPARUM, PHARMACEUTICAL COMPOSITION, AND DRUG FOR TREATING MALARIA RESISTANT TO ARTEMISININ AND ANALOG THEREOF” (priority 2023, published 2026).

One data set relates to PfAP2-O5. Put plainly: Transcriptome sequencing (RNA-seq) analysis of effects on PfAP2-O5 target (invasion) gene expression. The data set is classed as cell-based, Plasmodium falciparum. The settings on record: wild-type strain, 1 μM. Here is the method: Wild-type and pfap2-o5 conditional knockdown Plasmodium falciparum strains were treated with the hexahydroquinoline derivative represented by formula (I), respectively. After strict synchronization of the Plasmodium falciparum strains, 1 μM hexahydroquinoline derivative was added one life cycle in advance. After one life cycle, the ring (10-15 hours), trophozoite (28-32 hours), and schizont (40-44 hours) stage cultures of the wild-type and pfap2-o5 conditional knockdown Plasmodium falciparum strains treated with the hexahydroquinoline derivative were collected. Total RNA was purified using the Direct-zol RNA kit, strand-specific RNA sequencing libraries were then prepared using KAPA mRNA beads, and the RNA was fragmented. The libraries were sequenced on the Illumina HiSeq X Ten system, and the differential gene expression between the two Plasmodium falciparum strains after inhibitor treatment was analyzed.

A short description of data set [1]: Liver microsomal metabolism assay, rat. The format is in vitro ADME. Here is the method:
(§1) In the microsomal metabolism assay, the inhibitor was incubated with liver microsomes from different species; the reaction was terminated at different time points; the remaining amount of the inhibitor in the samples at each time point was determined using LC-MS/MS. The percentage of parent drug remaining was calculated, and the hepatic intrinsic clearance CLint(liver) was finally obtained. Testosterone was used as a control in this study to verify the reliability of the experimental system. The detailed procedures were as follows: • The incubation system consisted of 0.1 M Tris-HCl buffer (pH 7.4), 1 mM MgCl2, 1 mM NADPH (Nicotinamide Adenine Dinucleotide Phosphate), and 0.5 mg/ml microsomes, and the final reaction volume was 200 μL. […] inhibitor and testosterone were pre-incubated with liver microsomes from different species in a 37° C. water bath for 5 minutes. 100 μL of NADPH was added to initiate the reaction. 400 μL of stop solution was added to terminate the reaction at time points of 0 minutes, 5 minutes, 15 minutes, 30 minutes, 45 minutes, and 60 minutes. 40 μL of internal standard was added, and the mixture was vortexed for 5 minutes and centrifuged at 20,000 g and 4° C. for 5 minutes. 100 μL of the supernatant was taken and diluted with 100 μL of water for injection and analysis. The retention time of the compound and the internal standard, chromatogram acquisition, and chromatogram integration were processed by Analyst 1.6.3 software. The compound was subjected to linear regression with a weighting coefficient of 1/X^2 to calculate the concentration at each time point. The natural logarithm of the percentage remaining at each time point was linearly regressed against the incubation time to calculate the in vitro elimination rate constant k. The half-life (T1/2) and hepatic intrinsic clearance CLint(liver) of the test article were calculated according to the following formula.
(§2) hepatic microsomal clearance CLint(mic)=0.693/half-life/mg microsomal protein per mL; hepatic intrinsic clearance CLint(liver)=hepatic microsomal clearance×mg microsomal protein/gram of liver×liver weight-to-body weight ratio. The liver weight-to-body weight ratios of mice, rats, and humans were 88, 40, and 20 g/kg, respectively; the average value of mg microsomal protein/gram of liver in different species was 45.

In a further data set the test system is Plasmodium falciparum. Nature of the data set: In vitro growth inhibition of Plasmodium falciparum (3-day SYBR Green I cell growth assay). The data set is classed as cell-based. The settings on record: wild-type Plasmodium falciparum, 72 hours, read-out: IC50 of the quantitative growth inhibitory effect on in vitro culture of Plasmodium falciparum. Here is the method: 100 μL of complete culture medium was added to a 96-well plate. 200 μL of a compound stock solution with a concentration of 200 μM was added to the first well. Gradient dilution (11 concentration gradients) was performed at a 1/2 ratio according to the doubling gradient dilution. Dihydroartemisinin (DHA) was used as a positive control, complete culture medium was used as a negative control, and red blood cells without Plasmodium falciparum or compounds were used as a background control.
100 μL of wild-type Plasmodium falciparum culture (1% parasitemia, 4% hematocrit) was accurately added to each well, so that finally, the parasitemia in each well was 0.5%, and the hematocrit was 2%. The final concentration gradients of the compound were 100 μM, 50 μM, 25 μM, 12.5 μM, 6.25 μM, 3.125 μM, 1.5625 μM, 0.78125 μM, 0.390625 µM, 0.195313 μM, and 0.097656 μM. […] After the incubation was completed, a fluorescence intensity was recorded on a microplate reader with an excitation wavelength of 485 nm and an emission wavelength of 535 nm. The inhibition rate of the small molecule inhibitor on the growth of Plasmodium falciparum was calculated based on the fluorescence intensity.
[formula] • where Fltreated, Flbackground, and Flcontrol represent the fluorescence intensity values of the candidate small molecule drug group, the red blood cell control group, and the untreated control group, respectively. […]

Data set [2] can be described thus: Liver microsomal metabolism assay, human. The data set is classed as in vitro ADME. The procedure: as §1, §2
A general note: Liver microsomes are vesicles of endoplasmic reticulum, rich in cytochrome P450 enzymes.

In data set [3] the test system is human liver cancer cell line HepG2. Nature of the data set: Cytotoxicity, CCK8 assay, HepG2 cells. The format is cell-based. The settings on record: HepG2, 72 hours. The procedure:
(§3) Mammalian 293T and HepG2 cells were cultured and passaged, trypsinized, and resuspended in DMEM. The cells were counted using a hemocytometer and diluted to 10^5 cells/mL. The cell suspension was evenly added to a 96-well plate, with 100 μL per well. After the cells were subjected to attachment culture in a 37° C. incubator (5% CO2) for 24 hours, the inhibitors of the corresponding concentrations were added. Gradient dilution (11 concentration gradients) was performed at a 1/2 ratio according to the doubling gradient dilution. Complete culture medium was used as a negative control, and DMEM was used as a background control. After the culture in a 37° C. incubator (5% CO2) for 72 hours, 10 μL of CCK8 reagent was added to each well. The plate was incubated in a 37° C. incubator (5% CO2) for 1 hour. The absorbance at a 450 nm wavelength was read by a microplate reader, and a survival rate was calculated based on the absorbance.
(§4) [formula] • where Abtreated, Abbackground, and Abcontrol represent the absorbance values of the small molecule drug group, the DMEM control group, and the untreated control group, respectively. The inhibition rate of the drug was calculated based on the survival rate at different concentrations, and the growth inhibition curve was summarized as inhibition rate-drug concentration. The IC50 was calculated using SPSS 18.0 software.
A general note: Formazan colour is commonly taken as a measure of viable cells.

The test system of data set [4] is human renal epithelial cell line 293T. Nature of the data set: Cytotoxicity, CCK8 assay, 293T cells. The data set is classed as cell-based. The settings on record: 72 hours. The procedure:
as §3, §4

The nature of data set [5]: Liver microsomal metabolism assay, mouse. The format is in vitro ADME. The procedure: as §1, §2

With `CC1=C(C(=O)Nc2cccc(C(F)(F)F)c2)C(c2cccc([N+](=O)[O-])c2)C2=C(CC(C)(C)CC2=O)N1` (centres unmarked) [hexahydroquinoline derivative], the “expression of PfAP2-O5 target genes after treatment” value in the data set on PfAP2-O5 is listed as “downregulated”. Also, the “decrease of expression levels of merozoite surface structural protein family (invasion) genes (mRNA level)” value in the data set with PfAP2-O5 (added one life cycle in advance) is “more than 1.5 fold”. For the same compound, the CLint scaled (commonly the rate of metabolic loss divided by the concentration) in data set [1] (liver microsomes, pH 7.4, rat, hepatic intrinsic clearance CLint(liver), scaled with 45 mg protein/g liver, 40 g/kg) was found to be 178 mL/min/kg; in data set [2] (liver microsomes, pH 7.4, human, hepatic intrinsic clearance CLint(liver), scaled with 45 mg protein/g liver, 20 g/kg), 22.3 mL/min/kg; in data set [5] (liver microsomes, pH 7.4, mouse, hepatic intrinsic clearance CLint(liver), scaled with 45 mg protein/g liver, 88 g/kg), 176 mL/min/kg. For the same compound, the half-life (as a rule, the time in which the quantity being followed falls by half) in data set [1] (pH 7.4, rat liver microsomes 0.5 mg/ml, 1 mM NADPH, 37° C.) is 14.1 min; in data set [2] (pH 7.4, human liver microsomes 0.5 mg/ml, 1 mM NADPH, 37° C.) it was 55.9 min; in data set [5] (pH 7.4, mouse liver microsomes 0.5 mg/ml, 1 mM NADPH, 37° C.), 31.2 min. For the same compound, the clearance classification entry in data set [1] (rat liver microsomes) is reported as “high-clearance compound”; in data set [2] (human liver microsomes) it was “moderate-clearance compound”; in data set [5] (mouse liver microsomes) it was “moderate-clearance compound”. Further, the k in data set [1] (rat liver microsomes 0.5 mg/ml, 1 mM NADPH, 1 M inhibitor, 37° C.) turned out to be 0.0493 min⁻¹; in data set [2] (human liver microsomes 0.5 mg/ml, 1 mM NADPH, 1 M inhibitor, 37° C.), 0.0124 min⁻¹; in data set [5] (mouse liver microsomes 0.5 mg/ml, 1 mM NADPH, 1 M inhibitor, 37° C.), 0.0222 min⁻¹. In addition, in the data set on Plasmodium falciparum, the half-inhibitory concentration (IC50) (commonly the concentration at which inhibition is half-maximal) was found to be 2160 nM. Further, the “cytotoxicity to mammalian cells” value in data set [3] and in data set [4] was “low cytotoxicity” in each case.
